Patent US10034886B2, “GLP-1 receptor modulators” (Celgene International II SÀRL, priority 2014, dated 2018)
pEC50: −log10 of the molar value.

These compounds were tested against T1, GLP-1R (Homo sapiens, UniProt P43220) (assay: EC20 GLP-1(9-36) PAM cAMP assay: dose response of compound in the presence of fixed concentration of GLP-1(9-36)). Conditions: GLP-1R CRE-bla CHO-K1 cells, compound dose response with fixed concentration of GLP-1(9-36), read-out: EC20 GLP-1(9-36) PAM EC50.
T1 construct: host or cells: GLP-1R CRE-bla CHO-K1 cells
Assay type: cell-based
Procedure, shortened: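 GLP-1R CRE-bla CHO-K1 cells treated 30 min at 37 °C with 12-point compound dose response plus fixed EC20 GLP-1(9-36), with IBMX, in HBSS/HEPES/0.1% BSA pH 7.4. Total cAMP measured by luminescent detection against standard curve; EC50 and Emax from non-linear regression.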

T1 sequence (P43220 24-463): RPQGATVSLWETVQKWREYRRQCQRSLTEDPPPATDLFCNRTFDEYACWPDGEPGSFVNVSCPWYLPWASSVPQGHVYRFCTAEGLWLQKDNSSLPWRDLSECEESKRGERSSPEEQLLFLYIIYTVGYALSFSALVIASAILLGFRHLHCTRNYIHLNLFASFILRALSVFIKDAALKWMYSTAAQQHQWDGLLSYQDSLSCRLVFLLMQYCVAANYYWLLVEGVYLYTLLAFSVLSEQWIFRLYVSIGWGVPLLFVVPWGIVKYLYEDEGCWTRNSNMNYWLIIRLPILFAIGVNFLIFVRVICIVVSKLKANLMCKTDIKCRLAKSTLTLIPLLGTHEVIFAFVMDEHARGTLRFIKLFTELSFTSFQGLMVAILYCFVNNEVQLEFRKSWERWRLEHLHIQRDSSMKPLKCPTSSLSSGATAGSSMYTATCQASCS
T1 sequence (P01275 100-127 partner limits assumed): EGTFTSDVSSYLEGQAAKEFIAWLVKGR

pEC50, 5.00 to 5.30:
CCc1ccc(C2CN(c3cnc(-c4ccc(CC(NC(=O)c5ccc(C(C)(C)C)s5)C(=O)N5CC(C(=O)O)C5)cc4)nc3)C2)cc1 (stereo not drawn) [Compound 1418]
CC(C)(C)c1ccc(C(=O)N[C@@H](Cc2ccc(-c3ccc(-n4c5ccccc5c5ccccc54)cc3)cc2)C(=O)O)s1 [Compound 1440]
CCCCC1CCN(C2CCN(c3cnc(-c4ccc(C[C@H](NC(=O)c5ccc(C(C)(C)C)s5)C(=O)N5CC(C(=O)O)C5)cc4)nc3)CC2)C(=O)C1 (stereo partly drawn) [Compound 1506]

pEC50, 5.60 to 6.10:
CC(C)(C)c1ccc(C(=O)N[C@@H](Cc2ccc(-c3ncc(N4CCC(c5cccc(C(F)(F)F)c5)CC4)cn3)cc2)C(=O)N2CC(C(=O)O)C2)s1 [Compound 1482]
CCC[C@H]1CC[C@H](C2CCN(c3cnc(-c4ccc(C[C@H](NC(=O)c5ccc(C6CC6)cn5)C(=O)N5CC(C(=O)O)C5)cc4)nc3)CC2)CC1 [Compound 1538]
CCCCc1ccc(C2CN(c3cnc(-c4ccc(C[C@H](NC(=O)c5ccc(C(C)(C)C)s5)C(=O)N5CC(C(=O)O)C5)cc4)nc3)C2)cc1 [Compound 1503]
CC(C)CCCOc1ccc(-c2cnc(-c3ccc(C[C@H](NC(=O)c4ccc(C5CC5)cc4)C(=O)N4CC(C(=O)O)C4)cc3)nc2)cc1 [Compound 1233]
CC(C)(C)c1ccc(C(=O)N[C@@H](Cc2ccc(-c3ncc(-c4ccc(C5CCCCC5)cc4)cn3)cc2)C(=O)O)s1 [Compound 1345]
CC[C@H]1CC[C@H](c2ccc(-c3cnc(-c4ccc(C[C@@H](NC(=O)c5ccc(C(C)(C)C)s5)C(=O)O)cc4)nc3)cc2)CC1 [Compound 1392]

pEC50, > 6.10:
CC(C)CCCOc1ccc(-c2cnc(-c3ccc(C[C@H](NC(=O)c4ccc(S(C)(=O)=O)s4)C(=O)N4CC(C(=O)O)C4)cc3)nc2)cc1 [Compound 1246]
CC[C@H]1CC[C@H](c2ccc(-c3cnc(-c4ccc(C[C@H](NC(=O)c5ccc(S(C)(=O)=O)s5)C(=O)N5CC(C(=O)O)C5)cc4)nc3)cc2)CC1 [Compound 1278]
CC1(C)CCC(C2CCN(c3cnc(-c4ccc(C[C@H](NC(=O)c5ccc(C(C)(C)C)s5)C(=O)N5CC(C(=O)O)C5)cc4)nc3)CC2)CC1 [Compound 1424]
CCC[C@H]1CC[C@H](C2CCN(c3cnc(-c4ccc(CC(NC(=O)c5ccc(C(C)(C)C)s5)C(=O)NS(=O)(=O)C(C)(C)C)cc4)nc3)CC2)CC1 (stereo partly drawn) [Compound 1546]
CC(C)Oc1ccc(-c2ccc(-c3cnc(-c4ccc(C[C@H](NC(=O)c5ccc(C(C)(C)C)s5)C(=O)N5CC(C(=O)O)C5)cc4)nc3)c(F)c2)cc1 [Compound 1396]
Cc1cc(-c2ccc(-c3cnc(-c4ccc(C[C@H](NC(=O)c5ccc(C(C)(C)C)s5)C(=O)N5CC(C(=O)O)C5)cc4)nc3)c(F)c2)ccc1C(F)(F)F [Compound 1225]

Same assay, conditions: dose response of compound in presence of fixed concentration of GLP-1(9-36), GLP-1R CRE-bla CHO-K1 cells, read-out: EC20 GLP-1(9-36) PAM EC50

pEC50, 5.60 to 6.10:
CCCCCCCOc1ccc(-c2cnc(-c3ccc(C[C@H](NC(=O)c4ccc(C(C)(C)C)s4)C(=O)NS(=O)(=O)c4ccccc4)cc3)nc2)cc1 [Compound 423]
CCCCN(Cc1ccc(OC)cc1)S(=O)(=O)c1ccc(-c2cnc(-c3ccc(C[C@H](NC(=O)c4ccc(C(C)(C)C)s4)C(=O)N[C@H](C)C(=O)O)cc3)nc2)cc1 [Compound 1037]
CCCCCCCOc1ccc(-c2cnc(-c3ccc(C[C@H](NC(=O)c4ccc(C(C)(C)C)s4)C(=O)N[C@@H](Cc4cccnc4)C(=O)O)cc3)nc2)cc1 [Compound 616]
CC(C)CCOc1ccc(-c2cnc(-c3ccc(C[C@H](NC(=O)c4ccc(C(C)(C)C)s4)C(=O)N4CC(C(=O)O)C4)cc3)nc2)cc1 [Compound 799]
CCCOc1ccc(-c2cnc(-c3ccc(C[C@H](NC(=O)c4ccc(C(C)(C)C)cc4)C(=O)NCCC(=O)O)cc3)nc2)cc1 [Compound 708]
CCCCCCCCOc1ccc(-c2cnc(-c3ccc(C[C@H](NC(=O)c4ccc(C(C)(C)C)s4)C(=O)NC(C(=O)O)C(O)c4ccccc4)cc3)nc2)cc1 (stereo partly drawn) [Compound 926]
CCCCCCCOc1ccc(-c2cnc(-c3ccc(C[C@H](NC(=O)c4ccc(C(C)(C)C)s4)C(=O)NC(C(=O)O)C(O)c4cccnn4)cc3)nc2)cc1 (stereo partly drawn) [Compound 915]
CCCCCCCOc1ccc(-c2cnc(-c3ccc(C[C@H](NC(=O)c4ccc(C(C)(C)C)s4)C(=O)N4CC[C@H](C(=O)NS(C)(=O)=O)C4)cc3)nc2)cc1 [Compound 884]
C[C@@H](NC(=O)[C@H](Cc1ccc(-c2ncc(-c3cccc(C(=O)Nc4cccc(F)c4)c3)cn2)cc1)NC(=O)c1ccc(C(C)(C)C)s1)C(=O)O [Compound 1032]
CCCCCCCOc1ccc(-c2cnc(-c3ccc(C[C@H](NC(=O)c4ccc(C(C)(C)C)s4)C(=O)N4CC[C@H]4C(=O)O)cc3)nc2)cc1 [Compound 668]
C[C@@H](NC(=O)[C@H](Cc1ccc(-c2ncc(-c3ccc(N(c4ccccc4)c4ccccc4)cc3)cn2)cc1)NC(=O)c1ccc(C(C)(C)C)s1)C(=O)O [Compound 1015]
CCCCCCCOc1ccc(-c2cnc(-c3ccc(C[C@H](NC(=O)c4ccc(C(C)C)s4)C(=O)NC(C(=O)O)C(O)c4ccccc4)cc3)nc2)cc1 (stereo partly drawn) [Compound 958]
CCCCCCCOc1ccc(-c2cnc(-c3ccc(C[C@H](NC(=O)c4ccc(C(C)(C)C)cc4)C(=O)N[C@@H](CC(=O)O)C(=O)NCCOC)cc3)nc2)cc1 [Compound 506]
CCCCCCCOc1ccc(-c2cnc(-c3ccc(C[C@H](NC(=O)c4ccc(C(C)(C)C)cc4)C(=O)N4CC[C@@H](C(=O)O)C4)cc3)nc2)cc1 [Compound 588]
CCCCCCCOc1ccc(-c2cnc(-c3ccc(C[C@H](NC(=O)c4ccc(C(C)(C)C)cc4)C(=O)NC(CCCC)C(=O)O)cc3)nc2)cc1 (stereo partly drawn) [Compound 547]
CCCCCCCOc1ccc(-c2cnc(-c3ccc(C[C@H](NC(=O)c4ccc(OCCC)cc4)C(=O)N4CC[C@H](C(=O)O)C4)cc3)nc2)cc1 [Compound 1097]

pEC50, 5.30 to 5.60:
CCCCCCNc1ccc(-c2cnc(-c3ccc(C[C@H](NC(=O)c4ccc(C(C)(C)C)cc4)C(=O)NCCC(=O)O)cc3)nc2)cc1 [Compound 686]
CCCCCCCOc1ccc(-c2cnc(-c3ccc(C[C@H](NC(=O)c4ccc(C(C)(C)C)cc4)C(=O)N[C@H](CCCNC(=O)OCc4ccccc4)C(=O)O)cc3)nc2)cc1 [Compound 575]
CCCCCCCOc1ccc(-c2cnc(-c3ccc(C[C@H](NC(=O)c4ccc(C(C)(C)C)s4)C(=O)NC(C(=O)O)C(O)c4cn(C)cn4)cc3)nc2)cc1 (stereo partly drawn) [Compound 906]
CC(C)(C)c1ccc(-c2cnc(-c3ccc(CC(NC(=O)c4ccc(C(C)(C)C)s4)C(=O)O)cc3F)nc2)cc1 (stereo not drawn) [Compound 391]
CCCCCCCOc1ccc(-c2cnc(-c3ccc(CC(NC(=O)c4ccc(C(C)(C)C)s4)C(=O)N[C@@H](CCCNC(=N)N)C(=O)O)cc3)nc2)cc1 (stereo partly drawn) [Compound 425]
CC(C)(C)c1ccc(C(=O)N[C@@H](Cc2ccc(-c3ncc(-c4ccc(C5CCOCC5)cc4)cn3)cc2)C(=O)N2CC(C(=O)O)C2)s1 [Compound 1180]
CCCCCCCOc1ccc(-c2cnc(-c3ccc(C[C@H](NC(=O)c4ccc(C(C)(C)C)cc4)C(=O)NCCC(=O)O)cc3)nc2)c(Cl)c1 [Compound 701]
CCCCCCCOc1ccc(-c2cnc(-c3ccc(C[C@H](NC(=O)CN(C)C)C(=O)N[C@H](C)C(=O)O)cc3)nc2)cc1 [Compound 826]

pEC50, 5.00 to 5.30:
CCCCCCCOc1ccc(-c2cnc(-c3ccc(C[C@H](NC(=O)c4ccc(C(C)(C)C)cc4)C(=O)N[C@@H](CC(=O)NCCN(C)C)C(=O)O)cc3)nc2)cc1 [Compound 485]
CCCCCCCOc1ccc(-c2cnc(-c3ccc(C[C@H](NC(=O)c4ccc(C(C)(C)C)s4)C(=O)N4CC[C@H](O)C4)cc3)nc2)cc1 [Compound 977]
CCCCCCCOc1ccc(-c2cnc(-c3ccc(C[C@H](NC(=O)c4ccc(C(C)(C)C)s4)C(=O)N4CC[C@@H](N)C4)cc3)nc2)cc1 [Compound 987]
CC(C)(C)c1ccc(C(=O)N[C@@H](Cc2ccc(-c3ncc(-c4ccc(OCC5CC5)cc4)cn3)cc2)C(=O)NCCC(=O)O)cc1 [Compound 684]
CCCCCCc1noc(-c2ccc(-c3cnc(-c4ccc(C[C@H](NC(=O)c5ccc(C(C)(C)C)cc5)C(=O)NCCC(=O)O)cc4)nc3)cc2)n1 [Compound 756]
C[C@@H](NC(=O)[C@H](Cc1ccc(-c2ncc(-c3ccc(Oc4ccccc4)cc3)cn2)cc1)NC(=O)c1ccc(C(C)(C)C)s1)C(=O)O [Compound 1000]
COc1ccc(-c2cnc(-c3ccc(C[C@H](NC(=O)c4ccc(C(C)(C)C)s4)C(=O)N4CC(C(=O)O)C4)cc3)nc2)cc1 [Compound 784]

pEC50, > 6.10:
CC(C)[C@H]1CC[C@H](c2ccc(-c3cnc(-c4ccc(C[C@H](NC(=O)c5ccc(C(C)(C)C)s5)C(=O)N5CC(C(=O)O)C5)cc4)nc3)cc2)CC1 [Compound 1178]
CCCCCCCOc1ccc(-c2cnc(-c3ccc(C[C@H](NC(=O)c4ccc(CC)cc4)C(=O)N[C@H](C)C(=O)O)cc3)nc2)cc1 [Compound 828]
CCCCCCCOc1ccc(-c2cnc(-c3ccc(C[C@H](NC(=O)c4ccc(C(C)(C)C)cc4)C(=O)N[C@@H](C)C(=O)O)cc3)nc2)cc1 [Compound 400]
CCCCCCCOc1ccc(-c2cnc(-c3ccc(C[C@H](NC(=O)c4ccc(C(C)(C)C)cc4)C(=O)N[C@H](CO)C(=O)O)cc3)nc2)cc1 [Compound 417]
CCCCCCCOc1ccc(-c2cnc(-c3ccc(C[C@H](NC(=O)c4ccc(C(C)(C)C)s4)C(=O)N4CC(C(=O)O)CC4C)cc3)nc2)cc1 (stereo partly drawn) [Compound 892]
